Patent US12257247B2 (Monte Rosa Therapeutics AG, priority 2023, dated 2025)
Read-outs that look alike come from different tables or passages of the source.

Target: T1, VAV1 (Homo sapiens, UniProt P15498+Q96SW2)
T1 construct: A heterozygous VAV1 C-terminal HiBiT knock-in pool was generated at Monte Rosa Therapeutics from a clonal Jurkat cell; endogenous in cells; host or cells: Jurkat clone stably expressing LgBiT, homozygous GSPT1-G575N; heterozygous VAV1-HiBiT knock-in pool
Experiment: VAV1 degradation activity, VAV1-HiBiT knock-in Jurkat luminescence assay (Example A, Table 1)
Type: cell-based
Conditions: VAV1-HiBiT knock-in Jurkat cells, luminescence read at 6 and 24 hours after compound addition; for Dmax: Jurkat
Outline: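 Luminescence was measured at 6 and 24 h after adding compound (10 μM stock) to VAV1-HiBiT knock-in Jurkat cells, which had been pre-incubated ~16 h at 37° C. in RPMI/10% FBS containing Endurazine. EC50 values came from control-normalised responses fitted to a 3-parameter logistic model with hillslope fixed at 1.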

[1] = read-out: VAV1 DC50 (nM), class

| SMILES | Dmax (read-out: VAV1 Dmax %) [%] | Dmax (read-out: VAV1 Dmax %, class) [%] | DC50 (read-out: VAV1 DC50) [nM] | DC50 [1] [nM] |
| --- | --- | --- | --- | --- |
| CN1CCc2cc(-c3cccc(C4CCC(=O)NC4=O)c3Cl)ccc21 (stereo not shown) [Compound 488, 3-(2-chloro-3-(1-methylindolin-5-yl)phenyl)piperidine-2,6-dione] | 91 | > 90 | 17.2 | ≤ 100 |
| Cn1ccc(CN2CCc3cc(-c4cccc(C5CCC(=O)NC5=O)c4Cl)ccc32)n1 (stereo not shown) [Compound 489, 3-(2-chloro-3-(1-((1-methyl-1H-pyrazol-3-yl)methyl)indolin-5-yl)phenyl)piperidine-2,6-dione] | 97.8 | > 90 | 2.84 | ≤ 100 |
| O=C1CCC(c2cccc(-c3ccc4c(c3)CCN4)c2Cl)C(=O)N1 (stereo not shown) [Compound 490, 3-(2-chloro-3-(indolin-5-yl)phenyl)piperidine-2,6-dione] | 74.5 | 60 to 90 | 131 | 100 to 1000 |
| O=C1CCC(c2cccc(-c3ccc4c(c3)CCN4)c2F)C(=O)N1 (stereo not shown) [Compound 491, 3-(2-fluoro-3-(indolin-5-yl)phenyl)piperidine-2,6-dione] | 88.5 | 60 to 90 | 15.7 | ≤ 100 |
| O=C1CCC(c2cccc(-c3ccc4c(c3)CCC(=O)N4)c2Cl)C(=O)N1 (stereo not shown) [Compound 492, 3-(2-chloro-3-(2-oxo-1,2,3,4-tetrahydroquinolin-6-yl)phenyl)piperidine-2,6-dione] | 94.3 | > 90 | 10.7 | ≤ 100 |
| O=C1CCC(c2cccc(-c3ccc4c(c3)CC(=O)N4)c2Cl)C(=O)N1 (stereo not shown) [Compound 493, 3-(2-chloro-3-(2-oxoindolin-5-yl)phenyl)piperidine-2,6-dione] | 75.7 | 60 to 90 | 502 | 100 to 1000 |
| O=C1CCC(c2cccc(-c3cnc4c(c3)OCCN4)c2Cl)C(=O)N1 (stereo not shown) [Compound 494, 3-(2-chloro-3-(3,4-dihydro-2H-pyrido[3,2-b][1,4]oxazin-7-yl)phenyl)piperidine-2,6-dione] | 61.2 | 60 to 90 | 929 | 100 to 1000 |
| Cn1ccc(CN2C(=O)Cc3cc(-c4cccc(C5CCC(=O)NC5=O)c4Cl)ccc32)n1 (stereo not shown) [Compound 496, 3-(2-chloro-3-(1-((1-methyl-1H-pyrazol-3-yl)methyl)-2-oxoindolin-5-yl)phenyl)piperidine-2,6-dione] | 95.6 | > 90 | 12.7 | ≤ 100 |
| CC1(C)Cc2cc(-c3cccc(C4CCC(=O)NC4=O)c3Cl)ccc2N1 (stereo not shown) [Compound 497, 3-(2-chloro-3-(2,2-dimethylindolin-5-yl)phenyl)piperidine-2,6-dione] | 95.8 | > 90 | 18 | ≤ 100 |

Now from value to molecule:

| Dmax (read-out: VAV1 Dmax %) [%] | Dmax (read-out: VAV1 Dmax %, class) [%] | DC50 (read-out: VAV1 DC50) [nM] | DC50 [1] [nM] | SMILES |
| --- | --- | --- | --- | --- |
| 98 | > 90 | 11.8 | ≤ 100 | Cn1ccc(Cn2ncc3cc(-c4cccc(C5CCC(=O)NC5=O)c4Cl)ccc32)n1 (stereo not shown) [Compound 498, 3-(2-chloro-3-(1-((1-methyl-1H-pyrazol-3-yl)methyl)-1H-indazol-5-yl)phenyl)piperidine-2,6-dione] |
| 97.9 | > 90 | 5.45 | ≤ 100 | Cn1ccc(Cn2ccc3cc(-c4cccc(C5CCC(=O)NC5=O)c4Cl)ccc32)n1 (stereo not shown) [Compound 499, 3-(2-chloro-3-(1-((1-methyl-1H-pyrazol-3-yl)methyl)-1H-indol-5-yl)phenyl)piperidine-2,6-dione] |
| 98.5 | > 90 | 7.51 | ≤ 100 | CC1Cc2cc(-c3cccc(C4CCC(=O)NC4=O)c3Cl)ccc2N1 (stereo not shown) [Compound 500, 3-(2-chloro-3-(2-methylindolin-5-yl)phenyl)piperidine-2,6-dione] |
| 97.7 | > 90 | 8.19 | ≤ 100 | Cn1ccc(CN2C(=O)CCc3cc(-c4cccc(C5CCC(=O)NC5=O)c4Cl)ccc32)n1 (stereo not shown) [Compound 501, 3-(2-chloro-3-(1-((1-methyl-1H-pyrazol-3-yl)methyl)-2-oxo-1,2,3,4-tetrahydroquinolin-6-yl)phenyl)piperidine-2,6-dione] |
| 97.8 | > 90 | 3.95 | ≤ 100 | Cn1ccc(CN2C(=O)COc3cc(-c4cccc(C5CCC(=O)NC5=O)c4Cl)ccc32)n1 (stereo not shown) [Compound 502, 3-(2-chloro-3-(4-((1-methyl-1H-pyrazol-3-yl)methyl)-3-oxo-3,4-dihydro-2H-benzo[b][1,4]oxazin-7-yl)phenyl)piperidine-2,6-dione] |
| 90 | 60 to 90 | 4.73 | ≤ 100 | CN1Cc2cc(-c3cccc(C4CCC(=O)NC4=O)c3Cl)ccc2N(Cc2ccn(C)n2)C1=O (stereo not shown) [Compound 503, 3-(2-chloro-3-(3-methyl-1-((1-methyl-1H-pyrazol-3-yl)methyl)-2-oxo-1,2,3,4-tetrahydroquinazolin-6-yl)phenyl)piperidine-2,6-dione] |
| 96.7 | > 90 | 5.5 | ≤ 100 | Cn1cnc(CN2C(=O)Cc3cc(-c4cccc(C5CCC(=O)NC5=O)c4Cl)ccc32)c1 (stereo not shown) [Compound 504, 3-(2-chloro-3-(1-((1-methyl-1H-imidazol-4-yl)methyl)-2-oxoindolin-5-yl)phenyl)piperidine-2,6-dione] |
| 80.7 | 60 to 90 | 86.9 | ≤ 100 | O=C1CCC(c2cccc(-c3ccc4c(c3)CC(=O)N4Cc3cocn3)c2Cl)C(=O)N1 (stereo not shown) [Compound 505, 3-(2-chloro-3-(1-(oxazol-4-ylmethyl)-2-oxoindolin-5-yl)phenyl)piperidine-2,6-dione] |
| 63.7 | 60 to 90 | 1770 | > 1000 | O=C1CCC(c2cccc(-c3ccc4c(c3)CC(=O)N4CC3CC3)c2Cl)C(=O)N1 (stereo not shown) [Compound 506, 3-(2-chloro-3-(1-(cyclopropylmethyl)-2-oxoindolin-5-yl)phenyl)piperidine-2,6-dione] |
| 91.8 | > 90 | 28.6 | ≤ 100 | Cn1ccc(Cn2c(=O)oc3cc(-c4cccc(C5CCC(=O)NC5=O)c4Cl)ccc32)n1 (stereo not shown) [Compound 507, 3-(2-chloro-3-(3-((1-methyl-1H-pyrazol-3-yl)methyl)-2-oxo-2,3-dihydrobenzo[d]oxazol-6-yl)phenyl)piperidine-2,6-dione] |
| 92 | > 90 | 63.2 | ≤ 100 | Cn1cncc1Cn1ncc2cc(-c3cccc(C4CCC(=O)NC4=O)c3Cl)ccc21 (stereo not shown) [Compound 508, 3-(2-chloro-3-(1-((1-methyl-1H-imidazol-5-yl)methyl)-1H-indazol-5-yl)phenyl)piperidine-2,6-dione] |
| 97.8 | > 90 | 3.85 | ≤ 100 | Cn1cccc(N2CCc3cc(-c4cccc(C5CCC(=O)NC5=O)c4Cl)ccc32)c1=O (stereo not shown) [Compound 509, 3-(2-chloro-3-(1-(1-methyl-2-oxo-1,2-dihydropyridin-3-yl)indolin-5-yl)phenyl)piperidine-2,6-dione] |
| 89.2 | 60 to 90 | 78.6 | ≤ 100 | Cn1ccc(Cc2noc3cc(-c4cccc(C5CCC(=O)NC5=O)c4Cl)ccc23)n1 (stereo not shown) [Compound 510, 3-(2-chloro-3-(3-((1-methyl-1H-pyrazol-3-yl)methyl)benzo[d]isoxazol-6-yl)phenyl)piperidine-2,6-dione] |
